Columns and labels:
[1] = tested on: TIE2 mutant expressing HUVECs; assay: Mutant TIE2-transfected fibronectin assay (extracellular matrix); assay type: cell-based, human; conditions: 100 nM, 48 hours, TIE2 mutant HUVECs versus WT TIE2
Procedure: (§1) HUVECs used for in vitro work were kindly provided by Dr. Lauri Eklund (Oulu, Finland). Briefly, cells were grown in endothelial cell growth media (Tebu-Bio, Boechout, Belgium) containing 10% fetal calf serum (Sigma-Aldrich, Diegem, Belgium) at 37 degrees Celsius, 5% CO2, and 95% humidity. Cells were allowed to expand until reaching 90-95% confluence at which point they were subcultured or harvested for assay use.
HUVEC cells (3×10^5 cells/well) stably expressing WT or TIE2 mutants R849W, L914F, R1099*, Y897C/R915C, Y897F/F915L, or T1105N/T1106P were added to a 6-well plate coated with attachment factor solution (Tebu-Bio, Boechout, Belgium) in endothelial cell growth media (Tebu-Bio, Boechout, Belgium) containing 10% fetal calf serum (Sigma-Aldrich, Diegem, Belgium). Cells were then incubated for 24 hours at 37 degrees Celsius, 5% CO2, and 95% humidity. Next, test compound or DMSO was added to the wells (0.068% final DMSO concentration). The plates were then further incubated for 48 hours at 37 degrees Celsius, 5% CO2, and 95% humidity. Cells were switched into 2% FBS for overnight. Intracellular fibronectin levels were lower in transfectants, thus cellular lysates were collected and used as controls. […]

TIE2 mutant HUVECs [2] = assay: Mutant TIE2-transfected gene expression assay (quantitative PCR); assay type: cell-based, human; conditions: 100 nM, 48 hours, normalized to GAPDH
Procedure: as §1
HUVEC cells (5×10^5 cells/plate) stably expressing WT or TIE2 mutants R849W, L914F, R1099*, Y897C/R915C, Y897F/F915L, or T1105N/T1106P were added to a 10 cm plate coated with attachment factor solution (Tebu-Bio, Boechout, Belgium) in endothelial cell growth media (Tebu-Bio, Boechout, Belgium) containing 10% fetal calf serum (Sigma-Aldrich, Diegem, Belgium). Cells were then incubated for 2 days at 37 degrees Celsius, 5% CO2, and 95% humidity. Next, test compound or DMSO was added to the wells (0.068% final DMSO concentration). The plates were then further incubated for 48 hours at 37 degrees Celsius, 5% CO2, and 95% humidity. RNA was extracted by collecting the cells into TriPure isolation reagent (Sigma-Aldrich, Diegem, Belgium). Subsequently, cDNA from extracted RNA was synthesized using RevertAid H Minus first strand cDNA synthesis kit (Thermo Fischer Scientific, Merelbeke, Belgium). Quantitative PCR was carried out using LightCycler480 SYBRGreen master mix and a LightCycler 480 II instrument (Roche, Switzerland). cDNA for ANGPT2, PDGFB, ADAMTS1, ADAMTS9, PLAT, and PLAU were quantified and normalized to the expression from the housekeeping gene GAPDH.

STAT1 = assay: Mutant TIE2-transfected HUVEC Western blot assay: STAT1 phosphorylation downstream of TIE2; assay type: cell-based, human; conditions: 100 nM, 4 hours, HUVECs with WT TIE2 and TIE2 mutants, presence or absence of ANGPT1 stimulation
Procedure: as §1
(§2) HUVEC cells (2.5×10^5 cells/well) stably expressing WT or TIE2 mutants R849W, L914F, R1099*, Y897C/R915C, Y897F/F915L, or T1105N/T1106P were added to a 6-well plate coated with attachment factor solution (Tebu-Bio, Boechout, Belgium) in 2 mL of endothelial cell growth media (Tebu-Bio, Boechout, Belgium) containing 10% fetal calf serum (Sigma-Aldrich, Diegem, Belgium). Cells were subsequently incubated overnight at 37 degrees Celsius, 5% CO2, and 95% humidity. The next day test compound or DMSO was added to the wells (0.068% final DMSO concentration). The plates were then incubated for 4 hours at 37 degrees Celsius, 5% CO2, and 95% humidity. Next, cells were stimulated with 1 μg/mL ANGPT1 for 15 minutes. Cells were lysed and pTIE2, TIE2, b-actin, pAKT (S473), pAKT (T308), AKT, pSTAT1, and STAT1 were detected by Western blot.

[3] = tested on: HUVEC cells expressing mutant TIE2-L914F (VM lesions in matrigel plugs); assay: Venous malformation mouse model, diet from day of injection (Day 0); assay type: in vivo, athymic nude male mice
Procedure: (§3) For the in vivo model, fresh HUVEC transfectants were made using lentiviral infection. […]. Subsequently, 25,000 HUVECs/well (LGC Standards sarl, France) were grown on a 24-well plate for 24 hrs, infected with 500 μl of the lentivirus-TIE2-L914F mix, then cultured for another 48 hrs, collected, then frozen.
(§4) To evaluate the effect of the compound on vascular malformation (VM) lesion development in vivo, HUVEC cells (2.5×10^6) expressing mutant TIE2-L914F were cultured, detached, then resuspended in 200 μL matrigel (Corning). The mixture was injected subcutaneously into the dorsal back of athymic nude male mice, aged 5-7 weeks (Charles River). […] At post-implant day 7 or 16, mice were euthanized and the skin surrounding each matrigel plug was excised, then pinned flat onto a styrofoam board and fixed in 10% neutral buffered formalin solution (Sigma-Aldrich, Diegem, Belgium) overnight. Matrigel plugs were removed from the murine skin, dehydrated in a series of graded alcohol, and embedded in paraffin. Paraffin-embedded plugs were then cut into 5 μm sections for histological analysis. After de-paraffinization in xylene and rehydration in a series of degraded alcohol, sections were subjected to heat-induced antigen-retrieval in 0.1 M citrate buffer, pH 6.0, with or without 0.05% Tween-20. For immunohistochemical staining, sections were blocked with 3% H2O2 (Sigma-Aldrich, Diegem, Belgium), incubated with a biotinylated antibody against the human endothelial cell marker Ulex europaeus Agglutinin 1 (UEA1) (Vector labs, Brussels, Belgium), followed by a horseradish peroxidase-conjugated streptavidin secondary antibody (GE Healthcare, Diegem, Belgium), then in a DAB solution (Vector labs, Brussels, Belgium). Sections were counterstained with hematoxylin and mounted with VectaMount permanent mounting medium (Vector labs, Brussels, Belgium). For immunofluorescent staining (IF), sections were incubated with primary antibodies that recognize UEA1, the smooth muscle layer marker SMA (clone 1A4, Sigma-Aldrich, Diegem, Belgium), phosphorylated-TIE2(Y772) (Bioke, Leiden, Netherlands), or total TIE2 (Santa Cruz, Heidelberg, Germany). Secondary antibodies used were conjugated to Alexa488-, Alexa649-, or CY5-fluorophores. Slides were mounted with VectaShield Hardset mounting medium with DAPI (Vector labs, Brussels, Belgium). Images were acquired via a Panoramic 250 Flash III digital slide scanner (3D Histech, Hungary) and visualized with Caseviewer version 2.2 software (3D Histech, Hungary). The average vessel area was quantitated by making snapshots at a 20× objective of at least 5 areas of each matrigel plug and measuring the area of a least 6 UEA+ vessels each using ImageJ software.
To evaluate the overall vascular morphology within the explants, wholemount IF of vessels within matrigel plugs was done. After excising skins with matrigel plugs attached and flat-fixing them overnight in 10% neutral buffered formalin, an approximately 100-200 μm piece of the plug was sliced off and washed in 1×PBS. The pieces were blocked overnight in 1% BSA (v/v) (Gibco) and 0.3% Triton-X100 (Sigma-Aldrich, Diegem, Belgium) in 1×PBS, then incubated in UEA1 for at least 72 hours, followed by in CY5-streptavidin secondary antibody (Vector labs, Brussels, Belgium). Pieces were then post-fixed in 10% NBF for 10 min, then mounted with Fluormount G (Thermo Fischer Scientific, Merelbeke, Belgium). Z-stack images were acquired with a Zeiss cell observer spinning disk confocal microscope (Zeiss, Germany); 3-D projections of Z-stacks were generated by the AriVis4D software. […] Non-vascularized UEA+ cells were also present but the expression is reduced. Also conducted were comparisons of treated and untreated VM lesions at day 16 with wild type and L914F TIE2 mutants in which treatment began at day 0 (FIG. 18A-D) or day 7 (FIG. 19A-C).

WT TIE2 and TIE2 mutants = assay: Mutant TIE2-transfected HUVEC Western blot assay: TIE2 phosphorylation; assay type: cell-based, human; conditions: 100 nM, 4 hours, HUVECs with WT TIE2 and TIE2 mutants, presence or absence of ANGPT1 stimulation
Procedure: as §1, §2

AKT = assay: Mutant TIE2-transfected HUVEC Western blot assay: AKT phosphorylation downstream of TIE2; assay type: cell-based, human; conditions: 100 nM, 4 hours, HUVECs with WT TIE2 and TIE2 mutants, presence or absence of ANGPT1 stimulation
Procedure: as §1, §2

TIE2 mutant HUVECs [4] = assay: Mutant TIE2-transfected HUVEC cell morphology assay; assay type: cell-based, human; conditions: 100 nM, imaged at 24 and 48 hours, TIE2 mutant HUVECs compared with WT TIE2 HUVECs
Procedure: as §1
HUVEC cells (5×10^5 cells/plate) stably expressing WT or TIE2 mutants R849W, L914F, R1099*, Y897C/R915C, Y897F/F915L, or T1105N/T1106P were added to a 10 cm plate coated with attachment factor solution (Tebu-Bio, Boechout, Belgium) in 6 mL of endothelial cell growth media (Tebu-Bio, Boechout, Belgium) containing 10% fetal calf serum (Sigma-Aldrich, Diegem, Belgium). Cells were then incubated for 2 days at 37 degrees Celsius, 5% CO2, and 95% humidity. Next, test compound or DMSO was added to the wells (0.068% final DMSO concentration). The plates were then further incubated for 48 hours at 37 degrees Celsius, 5% CO2, and 95% humidity. The cells were imaged by microscopy at 24 hours and 48 hours after addition of compound.

[5] = tested on: HUVEC cells expressing mutant TIE2-L914F (VM lesions in matrigel plugs); assay: Venous malformation mouse model, previously established VM lesions, diet from post-implant day 7; assay type: in vivo, athymic nude male mice
Procedure: as §3
as §4, with “For immunofluorescent staining (IF), sections were incubated with primary antibodies that recognize UEA1, the smooth muscle layer marker SMA (clone 1A4, Sigma-Aldrich, Diegem, Belgium), phosphorylated-TIE2(Y772) (Bioke, Leiden, Netherlands), or total TIE2 (Santa Cruz, Heidelberg, Germany). Secondary antibodies used were conjugated to Alexa488-, Alexa649-, or CY5-fluorophores. Slides were mounted with VectaShield Hardset mounting medium with DAPI (Vector labs, Brussels, Belgium). Images were acquired via a Panoramic 250 Flash III digital slide scanner (3D Histech, Hungary) and visualized with Caseviewer version 2.2 software (3D Histech, Hungary).” left out, “software. […]” for “software.”

[6] = diet equivalent to 10 mg/kg from Day 0, post-implant day 7
[7] = diet equivalent to 10 mg/kg from Day 0, post-implant day 7, versus control diet
[8] = diet equivalent to 10 mg/kg from Day 0, post-implant day 16

`CNC(=O)c1cc(Oc2ccc(NC(=O)Nc3cc(C(C)(C)C)nn3-c3ccc4ncccc4c3)c(F)c2)ccn1` [compound of Formula I, rebastinib] was tested, and the “fibronectin levels in the extracellular matrix” value [1] was “restored fibronectin levels”, the “expression of ADAMTS1 RNA” value (TIE2 mutant HUVECs [2]) was “decreased expression” and the “expression of ADAMTS9 RNA” value (TIE2 mutant HUVECs [2]) was “decreased expression”. For the same molecule, the “expression of ANGPT2 RNA” value (TIE2 mutant HUVECs [2]) was “increased expression”, the “expression of PDGFB RNA” value (TIE2 mutant HUVECs [2]) was “increased expression” and the “expression of PLAT RNA” value (TIE2 mutant HUVECs [2]) was “decreased expression”. For the same molecule, the “expression of PLAU RNA” value (TIE2 mutant HUVECs [2]) was “decreased expression”, the “inhibition of STAT1 phosphorylation” value (STAT1) was “complete inhibition” and the “gross appearance of blood-filled vascular channels (macroscopic view of lesions)” value ([3]; diet equivalent to 10 mg/kg from Day 0, compared to untreated mutants) was “more controlled and less severe”. For the same molecule, the “overall vascular morphology (wholemount IF)” value [3, 6] was “more normal, tubular vessels were seen”, the “smooth muscle cell/pericyte coverage (SMA staining)” value [3, 6] was “displayed a few SMA positive cells” and the “average area of vessels within the plugs” value [3, 7] was “drastically less”. For the same molecule, the “expression of pTIE2 in ECs” value [3, 7] was “weaker”, the “overall vascular morphology (wholemount IF)” value [3, 8] was “largely normalized” and the “smooth muscle cell/pericyte coverage (SMA+ cells)” value [3, 8] was “surrounded more consistently by SMA+ cells”. For the same molecule, the “vessel size in lesions” value ([3]; diet equivalent to 10 mg/kg from Day 0, post-implant day 16, versus control diet and untreated) was “much smaller vessels”, the “pTIE2 in ECs” value ([3]; diet equivalent to 10 mg/kg from Day 0, post-implant day 16, versus untreated) was “drastically reduced” and the VM development ([3]; mice fed compound-infused food) was “reduced VM development”. For the same molecule, the “inhibition of TIE2 phosphorylation” value (WT TIE2 and TIE2 mutants) was “complete inhibition”, the “inhibition of AKT Ser473 phosphorylation” value (AKT) was “complete inhibition” and the “inhibition of AKT Thr308 phosphorylation” value (AKT) was “complete inhibition”. The cellular morphology (TIE2 mutant HUVECs [4]) was “restored cellular morphology”, the “severity of established VMs” value ([5]; diet from post-implant day 7) was “ameliorated the severity of VMs” and the “average vascular area of vessels” value ([5]; diet from post-implant day 7, explants day 16) was “moderately reduced”. For the same molecule, the “smooth muscle cell layer coverage” value ([5]; diet from post-implant day 7, explants day 16, versus control diet) was “improved smooth muscle cell layer coverage”.
